Test results: patent US10750743B2, “Pyridazinone herbicides” (E.I. DU PONT DE NEMOURS AND COMPANY, priority 2015, dated 2020)

Columns and labels:
Type in all cases: in vivo
[1] = tested on: barnyardgrass (Echinochloa crus-galli); experiment: Test A preemergence, directed soil spray, visual injury rating; conditions: 0 is no effect, 100 is complete control
Method in brief: (§1)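 Seeds sown in a loam soil–sand blend received a directed preemergence soil spray of test chemical in a non-phytotoxic solvent mixture with surfactant. Postemergence plants were sprayed at 2 to 10 cm, one- to two-leaf stage. After approximately 10 d in greenhouse, injury was visually rated 0 (no effect) to 100 (complete control) against untreated controls.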

[2] = tested on: foxtail, giant (giant foxtail, Setaria faberii); experiment: as above; conditions: 0 is no effect, 100 is complete control
Method in brief: as §1

kochia (Kochia scoparia) [3] = experiment: as above; conditions: 0 is no effect, 100 is complete control
Method in brief: as §1

[4] = tested on: pigweed (Amaranthus retroflexus); experiment: as above; conditions: 0 is no effect, 100 is complete control
Method in brief: as §1

[5] = tested on: ragweed (common ragweed, Ambrosia elatior); experiment: as above; conditions: 0 is no effect, 100 is complete control
Method in brief: as §1

[6] = tested on: ryegrass, It. (Italian ryegrass, Lolium multiflorum); experiment: as above; conditions: 0 is no effect, 100 is complete control
Method in brief: as §1

[7] = tested on: barnyardgrass (Echinochloa crus-galli); experiment: Test B flooded paddy test, visual rating; conditions: Flood, 250 g ai/ha, applied to paddy water, rated after 13 to 15 d
Method in brief: (§2)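 Plants at the 2-leaf stage were flooded to 3 cm above soil, and test compounds were applied directly into the paddy water, which was held at that depth throughout. After 13 to 15 d in a greenhouse, injury was rated visually against untreated controls on a 0–100 scale (0 no effect, 100 complete control).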

[8] = tested on: ducksalad (Heteranthera limosa); experiment: Test B flooded paddy test, visual rating; conditions: Flood, 250 g ai/ha, applied to paddy water, rated after 13 to 15 d
Method in brief: as §2

rice (Oryza sativa) = experiment: Test B flooded paddy test, visual rating; conditions: Flood, 250 g ai/ha, applied to paddy water, rated after 13 to 15 d
Method in brief: as §2

[9] = tested on: sedge, umbrella (small-flower umbrella sedge, Cyperus difformis); experiment: Test B flooded paddy test, visual rating; conditions: Flood, 250 g ai/ha, applied to paddy water, rated after 13 to 15 d
Method in brief: as §2

[10] = tested on: barnyardgrass (Echinochloa crus-galli); experiment: Test A postemergence application, visual injury rating; conditions: 0 to 100 scale, 0 no effect, 100 complete control
Method in brief: as §1

[11] = tested on: blackgrass (Alopecurus myosuroides); experiment: as above; conditions: 0 to 100 scale, 0 no effect, 100 complete control
Method in brief: as §1

corn (Zea mays) = experiment: as above; conditions: 0 to 100 scale, 0 no effect, 100 complete control
Method in brief: as §1

[12] = tested on: foxtail, giant (giant foxtail, Setaria faberii); experiment: as above; conditions: 0 to 100 scale, 0 no effect, 100 complete control
Method in brief: as §1

[13] = tested on: galium (catchweed bedstraw, Galium aparine); experiment: as above; conditions: 0 to 100 scale, 0 no effect, 100 complete control
Method in brief: as §1

kochia (Kochia scoparia) [14] = experiment: as above; conditions: 0 to 100 scale, 0 no effect, 100 complete control
Method in brief: as §1

[15] = tested on: pigweed (Amaranthus retroflexus); experiment: as above; conditions: 0 to 100 scale, 0 no effect, 100 complete control
Method in brief: as §1

[16] = tested on: ragweed (common ragweed, Ambrosia elatior); experiment: as above; conditions: 0 to 100 scale, 0 no effect, 100 complete control
Method in brief: as §1

[17] = tested on: ryegrass, It. (Italian ryegrass, Lolium multiflorum); experiment: as above; conditions: 0 to 100 scale, 0 no effect, 100 complete control
Method in brief: as §1

[18] = tested on: wheat (Triticum aestivum); experiment: as above; conditions: 0 to 100 scale, 0 no effect, 100 complete control
Method in brief: as §1

Row | SMILES | Plant response rating (0 to 100 scale), Barnyardgrass ([1]; 125 g ai/ha) | Plant response rating (0 to 100 scale), Foxtail, Giant ([2]; 125 g ai/ha) | Plant response rating (0 to 100 scale), Kochia (kochia (Kochia scoparia) [3]; 125 g ai/ha) | Plant response rating (0 to 100 scale), Pigweed ([4]; 125 g ai/ha) | Plant response rating (0 to 100 scale), Ragweed ([5]; 125 g ai/ha) | Plant response rating (0 to 100 scale), Ryegrass, It. ([6]; 125 g ai/ha) | Barnyardgrass plant response rating (0 to 100 scale, 0 is no effect, 100 is complete control) [7] | Ducksalad plant response rating (0 to 100 scale, 0 is no effect, 100 is complete control) [8] | Rice plant response rating (0 to 100 scale, 0 is no effect, 100 is complete control) (rice (Oryza sativa)) | Sedge, Umbrella plant response rating (0 to 100 scale, 0 is no effect, 100 is complete control) [9] | Barnyardgrass plant response rating ([10]; 125 g ai/ha) | Blackgrass plant response rating ([11]; 125 g ai/ha) | Corn plant response rating (corn (Zea mays); 125 g ai/ha) | Foxtail, Giant plant response rating ([12]; 125 g ai/ha) | Galium plant response rating ([13]; 125 g ai/ha) | Kochia plant response rating (kochia (Kochia scoparia) [14]; 125 g ai/ha) | Pigweed plant response rating ([15]; 125 g ai/ha) | Ragweed plant response rating ([16]; 125 g ai/ha) | Ryegrass, It. plant response rating ([17]; 125 g ai/ha) | Wheat plant response rating ([18]; 125 g ai/ha) | further results
1 | CC(=O)Oc1c(C)nn(C)c(=O)c1-c1cncc2ccccc12 [Compound 8] | 0 | 0 | 0 | 20 | 0 | 0 | 0 | 0 | 0 | 0 | 0 | 0 | 0 | 0 | 10 | 30 | 70 | 0 | 0 | 0 | Plant response rating (0 to 100 scale), Barnyardgrass ([1]; 500 g ai/ha): 0; Plant response rating (0 to 100 scale), Foxtail, Giant ([2]; 500 g ai/ha): 20; Plant response rating (0 to 100 scale), Kochia (kochia (Kochia scoparia) [3]; 500 g ai/ha): 0; Plant response rating (0 to 100 scale), Pigweed ([4]; 500 g ai/ha): 70; Plant response rating (0 to 100 scale), Ragweed ([5]; 500 g ai/ha): 0; Plant response rating (0 to 100 scale), Ryegrass, It. ([6]; 500 g ai/ha): 30; Barnyardgrass plant response rating ([10]; 500 g ai/ha): 20; Blackgrass plant response rating ([11]; 500 g ai/ha): 0; Corn plant response rating (corn (Zea mays); 500 g ai/ha): 0; Foxtail, Giant plant response rating ([12]; 500 g ai/ha): 20; Galium plant response rating ([13]; 500 g ai/ha): 80; Kochia plant response rating (kochia (Kochia scoparia) [14]; 500 g ai/ha): 80; Pigweed plant response rating ([15]; 500 g ai/ha): 80; Ragweed plant response rating ([16]; 500 g ai/ha): 0; Ryegrass, It. plant response rating ([17]; 500 g ai/ha): 30; Wheat plant response rating ([18]; 500 g ai/ha): 0
2 | COC(=O)Oc1c(C)nn(C)c(=O)c1-c1ccc(Cl)c2cc(C)oc12 [Compound 40] | 20 | 20 | 0 | 60 | 50 | 90 | 0 | 0 | 0 | 0 | 20 | 20 | 10 | 20 | 100 | 0 | 40 | 40 | 70 | 0 | Plant response rating (0 to 100 scale), Barnyardgrass ([1]; 31 g ai/ha): 0; Plant response rating (0 to 100 scale), Foxtail, Giant ([2]; 31 g ai/ha): 0; Plant response rating (0 to 100 scale), Kochia (kochia (Kochia scoparia) [3]; 31 g ai/ha): 0; Plant response rating (0 to 100 scale), Pigweed ([4]; 31 g ai/ha): 0; Plant response rating (0 to 100 scale), Ragweed ([5]; 31 g ai/ha): 0; Plant response rating (0 to 100 scale), Ryegrass, It. ([6]; 31 g ai/ha): 80; Barnyardgrass plant response rating ([10]; 31 g ai/ha): 10; Blackgrass plant response rating ([11]; 31 g ai/ha): 0; Corn plant response rating (corn (Zea mays); 31 g ai/ha): 0; Foxtail, Giant plant response rating ([12]; 31 g ai/ha): 10; Galium plant response rating ([13]; 31 g ai/ha): 90; Kochia plant response rating (kochia (Kochia scoparia) [14]; 31 g ai/ha): 0; Pigweed plant response rating ([15]; 31 g ai/ha): 20; Ragweed plant response rating ([16]; 31 g ai/ha): 20; Ryegrass, It. plant response rating ([17]; 31 g ai/ha): 40; Wheat plant response rating ([18]; 31 g ai/ha): 0
3 | Cc1ccc2sc(Cl)cc2c1-c1c(O)c(C)nn(C)c1=O [Compound 46] | 50 | 80 | 80 | 100 | 80 | 100 | 0 | 0 | 0 | 70 | 30 | 70 | 20 | 90 | 90 | 90 | 90 | 100 | 100 | 20 | Plant response rating (0 to 100 scale), Barnyardgrass ([1]; 31 g ai/ha): 0; Plant response rating (0 to 100 scale), Foxtail, Giant ([2]; 31 g ai/ha): 30; Plant response rating (0 to 100 scale), Kochia (kochia (Kochia scoparia) [3]; 31 g ai/ha): 50; Plant response rating (0 to 100 scale), Pigweed ([4]; 31 g ai/ha): 100; Plant response rating (0 to 100 scale), Ragweed ([5]; 31 g ai/ha): 80; Plant response rating (0 to 100 scale), Ryegrass, It. ([6]; 31 g ai/ha): 90; Barnyardgrass plant response rating ([10]; 31 g ai/ha): 10; Blackgrass plant response rating ([11]; 31 g ai/ha): 40; Corn plant response rating (corn (Zea mays); 31 g ai/ha): 0; Foxtail, Giant plant response rating ([12]; 31 g ai/ha): 50; Galium plant response rating ([13]; 31 g ai/ha): 90; Kochia plant response rating (kochia (Kochia scoparia) [14]; 31 g ai/ha): 60; Pigweed plant response rating ([15]; 31 g ai/ha): 90; Ragweed plant response rating ([16]; 31 g ai/ha): 90; Ryegrass, It. plant response rating ([17]; 31 g ai/ha): 90; Wheat plant response rating ([18]; 31 g ai/ha): 0
4 | CCC(=O)Oc1c(C)nn(C)c(=O)c1-c1ccc(Cl)c2oc(C)cc12 [Compound 52] | 0 | 0 | 0 | 70 | 0 | 50 | 0 | 0 | 0 | 0 | 0 | 0 | 0 | 0 | 90 | 0 | 60 | 20 | 40 | 0 | Plant response rating (0 to 100 scale), Barnyardgrass ([1]; 500 g ai/ha): 0; Plant response rating (0 to 100 scale), Foxtail, Giant ([2]; 500 g ai/ha): 0; Plant response rating (0 to 100 scale), Kochia (kochia (Kochia scoparia) [3]; 500 g ai/ha): 0; Plant response rating (0 to 100 scale), Pigweed ([4]; 500 g ai/ha): 100; Plant response rating (0 to 100 scale), Ragweed ([5]; 500 g ai/ha): 0; Plant response rating (0 to 100 scale), Ryegrass, It. ([6]; 500 g ai/ha): 70; Barnyardgrass plant response rating ([10]; 500 g ai/ha): 10; Blackgrass plant response rating ([11]; 500 g ai/ha): 10; Corn plant response rating (corn (Zea mays); 500 g ai/ha): 0; Foxtail, Giant plant response rating ([12]; 500 g ai/ha): 0; Galium plant response rating ([13]; 500 g ai/ha): 90; Kochia plant response rating (kochia (Kochia scoparia) [14]; 500 g ai/ha): 20; Pigweed plant response rating ([15]; 500 g ai/ha): 60; Ragweed plant response rating ([16]; 500 g ai/ha): 60; Ryegrass, It. plant response rating ([17]; 500 g ai/ha): 60; Wheat plant response rating ([18]; 500 g ai/ha): 0
